In US20070128217A1 (priority 2003, published 2007):

Columns and labels:
[1] = tested on: control sera (pooled serum of ten healthy LUMC hospital workers; commercial negative donor pooled serum from the Dutch bloodbank); type: binding, human; design: Binding of Control serum LUMC to linear peptides / Binding of Control serum Blood-bank to linear peptides / Binding of Control serum LUMC to looped peptides / Binding of Control Serum Blood-Bank to Looped peptides / Binding of Control serum LUMC to linear peptides of the protein M of SARS-CoV Urbani / Binding of Control serum Blood-bank to linear peptides of the protein M of SARS-CoV Urbani / Binding of Control serum LUMC to looped peptides of the protein M of SARS-CoV Urbani / Binding of Control Serum Blood-Bank to Looped peptides of the protein M of SARS-CoV Urbani: unit not given here
[2] = tested on: antibodies in sera from SARS patients (sera 1a, 1b, 2, 6, 37, 62, London, SARS-yellow, SARS-green); type: binding, human; design: Binding of serum 6 to linear peptides of protein X1 of SARS-CoV Urbani / Binding of serum 37 to linear peptides of protein X1 of SARS-CoV Urbani / Binding of serum 6 to looped/cyclic peptide (PEPSCAN-ELISA) / Binding of serum 37 to looped/cyclic peptide (PEPSCAN-ELISA) / Binding of serum 37 to looped/cyclic peptides of protein X1 of SARS-CoV Urbani / Binding of serum 6 to linear peptides of protein X2 / Binding of serum 37 to linear peptides of protein X2 / Binding of serum 37 to looped/cyclic peptides of protein X2 of SARS-CoV Urbani / Binding of serum 6 to linear peptides of protein M of SARS-CoV Urbani / Binding of serum 37 to linear peptides of protein M of SARS-CoV Urbani / Binding of serum 6 to looped/cyclic peptides of protein M of SARS-CoV Urbani / Binding of serum 37 to looped/cyclic peptides of protein M of SARS-CoV Urbani / Binding of serum 6 to linear peptides of protein X3 of SARS-CoV Urbani / Binding of serum 37 to linear peptides of protein X3 of SARS-CoV Urbani / Binding of serum 37 to looped/cyclic peptides of protein X3 of SARS-CoV Urbani / Binding of serum 6 to linear peptides of protein X4 of SARS-CoV Urbani / Binding of serum 37 to linear peptides of protein X4 of SARS-CoV Urbani / Binding of serum 37 to looped/cyclic peptides of protein X4 of SARS-CoV Urbani / Binding of serum 6 to linear peptides of protein X5 of SARS-CoV Urbani / Binding of serum 37 to linear peptides of protein X5 of SARS-CoV Urbani / Binding of serum 37 to looped/cyclic peptides of protein X5 of SARS-CoV Urbani / Binding of serum 6 to linear peptides of protein N of SARS-CoV Urbani / Binding of serum 37 to linear peptides of protein N of SARS-CoV Urbani / Binding of serum 6 to linear peptide (PEPSCAN-ELISA) / Binding of serum 1a to looped/cyclic peptides of protein N of SARS-CoV Urbani / Binding of serum 1b to looped/cyclic peptides of protein N of SARS-CoV Urbani / Binding of serum 2 to looped/cyclic peptides of protein N of SARS-CoV Urbani / Binding of serum 6 to looped/cyclic peptides of protein N of SARS-CoV Urbani / Binding of serum 37 to looped/cyclic peptides of protein N of SARS-CoV Urbani / Binding of serum 62 to looped/cyclic peptides of protein N of SARS-CoV Urbani / Binding of serum London to looped/cyclic peptides of protein N of SARS-CoV Urbani / Binding of serum SARS-green to looped/cyclic peptides of protein N of SARS-CoV Urbani: unit not given here
[3] = tested on: rabbit serum obtained by immunizing a rabbit with the SARS-CoV strain Frankfurt 1; type: binding; design: Binding of a rabbit serum to linear peptides / Binding of a rabbit serum to looped peptides / Rabbit serum linear peptides / Rabbit serum looped peptides / Binding of a rabbit serum to linear peptides of protein N of SARS-CoV Urbani (Rabbit serum linear peptides) / Binding of a rabbit serum to looped/cyclic peptides of protein N of SARS-CoV Urbani (Rabbit serum looped peptides): unit not given here

RCDIKDLPKEITVAT
Binding of Control Serum Blood-Bank to Looped peptides of the protein M of SARS-CoV Urbani [1]: 0.6 | Binding of Control serum Blood-bank to linear peptides of the protein M of SARS-CoV Urbani [1]: 0.7 | Binding of Control serum LUMC to linear peptides of the protein M of SARS-CoV Urbani [1]: 0.5 | Binding of Control serum LUMC to looped peptides of the protein M of SARS-CoV Urbani [1]: 0.7 | Binding of serum 1a to linear peptides of protein M of SARS-CoV Urbani [2]: 0.7 | Binding of serum 1a to looped/cyclic peptides of protein M of SARS-CoV Urbani [2]: 0.6 | Binding of serum 1b to linear peptides of protein M of SARS-CoV Urbani [2]: 0.5 | Binding of serum 1b to looped/cyclic peptides of protein M of SARS-CoV Urbani [2]: 0.4 | Binding of serum 2 to linear peptides of protein M of SARS-CoV Urbani [2]: 0.5 | Binding of serum 2 to looped/cyclic peptides of protein M of SARS-CoV Urbani [2]: 0.6 | Binding of serum 6 to linear peptides of protein M of SARS-CoV Urbani [2]: 0.3 | Binding of serum 6 to looped/cyclic peptides of protein M of SARS-CoV Urbani [2]: 0.6 | Binding of serum 37 to linear peptides of protein M of SARS-CoV Urbani [2]: 0.5 | Binding of serum 37 to looped/cyclic peptides of protein M of SARS-CoV Urbani [2]: 0.6 | Binding of serum 62 to linear peptides of protein M of SARS-CoV Urbani [2]: 0.6 | Binding of serum 62 to looped/cyclic peptides of protein M of SARS-CoV Urbani [2]: 0.6 | Binding of serum London to linear peptides of protein M of SARS-CoV Urbani [2]: 0.3 | Binding of serum London to looped/cyclic peptides of protein M of SARS-CoV Urbani [2]: 0.2 | Binding of serum SARS-green to linear peptides of protein M of SARS-CoV Urbani [2]: 0.5 | Binding of serum SARS-green to looped/cyclic peptides of protein M of SARS-CoV Urbani [2]: 0.4 | Binding of serum SARS-yellow to linear peptides of protein M of SARS-CoV Urbani [2]: 0.2 | Binding of serum SARS-yellow to looped/cyclic peptides of protein M of SARS-CoV Urbani [2]: 0.7 | Rabbit serum linear peptides [3]: 0.0 | Rabbit serum looped peptides [3]: 0.3

RGNTYSTAWLCALGK
Binding of Control Serum Blood-Bank to Looped peptides [1]: 0.4 | Binding of Control serum Blood-bank to linear peptides [1]: 1.0 | Binding of Control serum LUMC to linear peptides [1]: 0.6 | Binding of Control serum LUMC to looped peptides [1]: 0.6 | Binding of serum 1a to linear peptides of protein X5 of SARS-CoV Urbani [2]: 0.9 | Binding of serum 1a to looped/cyclic peptides of protein X5 of SARS-CoV Urbani [2]: 0.4 | Binding of serum 1b to linear peptides of protein X5 of SARS-CoV Urbani [2]: 0.6 | Binding of serum 1b to looped/cyclic peptides of protein X5 of SARS-CoV Urbani [2]: 0.3 | Binding of serum 2 to linear peptides of protein X5 of SARS-CoV Urbani [2]: 0.9 | Binding of serum 2 to looped/cyclic peptides of protein X5 of SARS-CoV Urbani [2]: 0.6 | Binding of serum 6 to linear peptides of protein X5 of SARS-CoV Urbani [2]: 0.7 | Binding of serum 6 to looped/cyclic peptides of protein X5 of SARS-CoV Urbani [2]: 0.9 | Binding of serum 37 to linear peptides of protein X5 of SARS-CoV Urbani [2]: 0.8 | Binding of serum 37 to looped/cyclic peptides of protein X5 of SARS-CoV Urbani [2]: 0.5 | Binding of serum 62 to linear peptides of protein X5 of SARS-CoV Urbani [2]: 0.8 | Binding of serum 62 to looped/cyclic peptides of protein X5 of SARS-CoV Urbani [2]: 0.7 | Binding of serum London to linear peptides of protein X5 of SARS-CoV Urbani [2]: 0.8 | Binding of serum London to looped/cyclic peptides of protein X5 of SARS-CoV Urbani [2]: 1.4 | Binding of serum SARS-green to linear peptides of protein X5 of SARS-CoV Urbani [2]: 0.6 | Binding of serum SARS-green to looped/cyclic peptides of protein X5 of SARS-CoV Urbani [2]: 0.3 | Binding of serum SARS-yellow to linear peptides of protein X5 of SARS-CoV Urbani [2]: 0.3 | Binding of serum SARS-yellow to looped/cyclic peptides of protein X5 of SARS-CoV Urbani [2]: 0.5 | Rabbit serum linear peptides [3]: 1.3 | Rabbit serum looped peptides [3]: 0.8

RGTIVTRPLMESELV
Binding of Control Serum Blood-Bank to Looped peptides of the protein M of SARS-CoV Urbani [1]: 0.6 | Binding of Control serum Blood-bank to linear peptides of the protein M of SARS-CoV Urbani [1]: 0.7 | Binding of Control serum LUMC to linear peptides of the protein M of SARS-CoV Urbani [1]: 0.4 | Binding of Control serum LUMC to looped peptides of the protein M of SARS-CoV Urbani [1]: 0.8 | Binding of serum 1a to linear peptides of protein M of SARS-CoV Urbani [2]: 0.9 | Binding of serum 1b to linear peptides of protein M of SARS-CoV Urbani [2]: 0.6 | Binding of serum 2 to linear peptides of protein M of SARS-CoV Urbani [2]: 0.6 | Binding of serum 6 to linear peptides of protein M of SARS-CoV Urbani [2]: 0.4 | Binding of serum 37 to linear peptides of protein M of SARS-CoV Urbani [2]: 0.9 | Binding of serum 62 to linear peptides of protein M of SARS-CoV Urbani [2]: 0.9 | Binding of serum London to linear peptides of protein M of SARS-CoV Urbani [2]: 0.3 | Binding of serum SARS-green to linear peptides of protein M of SARS-CoV Urbani [2]: 0.3 | Binding of serum SARS-yellow to linear peptides of protein M of SARS-CoV Urbani [2]: 0.1 | Recognition of the peptide by sera of SARS-CoV infected individuals, and form (linear, looped/cyclic) in which it is recognized [2]: recognized in looped/cyclic form | Rabbit serum linear peptides [3]: 0.3 | Rabbit serum looped peptides [3]: 0.3

RIAIWNLDVIISSIV
Binding of Control Serum Blood-Bank to Looped peptides of the protein X3 of SARS-CoV Urbani [1]: 0.9 | Binding of Control serum Blood-bank to linear peptides of the protein X3 of SARS-CoV Urbani [1]: 0.7 | Binding of Control serum LUMC to linear peptides of the protein X3 of SARS-CoV Urbani [1]: 0.6 | Binding of Control serum LUMC to looped peptides of the protein X3 of SARS-CoV Urbani [1]: 0.8 | Binding of serum 1a to linear peptides of protein X3 of SARS-CoV Urbani [2]: 0.7 | Binding of serum 1a to looped/cyclic peptides of protein X3 of SARS-CoV Urbani [2]: 0.8 | Binding of serum 1b to linear peptides of protein X3 of SARS-CoV Urbani [2]: 0.3 | Binding of serum 1b to looped/cyclic peptides of protein X3 of SARS-CoV Urbani [2]: 0.5 | Binding of serum 2 to linear peptides of protein X3 of SARS-CoV Urbani [2]: 0.6 | Binding of serum 2 to looped/cyclic peptides of protein X3 of SARS-CoV Urbani [2]: 0.8 | Binding of serum 6 to linear peptides of protein X3 of SARS-CoV Urbani [2]: 0.5 | Binding of serum 6 to looped/cyclic peptides of protein X3 of SARS-CoV Urbani [2]: 0.4 | Binding of serum 37 to linear peptides of protein X3 of SARS-CoV Urbani [2]: 0.5 | Binding of serum 37 to looped/cyclic peptides of protein X3 of SARS-CoV Urbani [2]: 0.6 | Binding of serum 62 to linear peptides of protein X3 of SARS-CoV Urbani [2]: 0.7 | Binding of serum 62 to looped/cyclic peptides of protein X3 of SARS-CoV Urbani [2]: 0.7 | Binding of serum London to linear peptides of protein X3 of SARS-CoV Urbani [2]: 0.7 | Binding of serum London to looped/cyclic peptides of protein X3 of SARS-CoV Urbani [2]: 0.2 | Binding of serum SARS-green to linear peptides of protein X3 of SARS-CoV Urbani [2]: 0.3 | Binding of serum SARS-green to looped/cyclic peptides of protein X3 of SARS-CoV Urbani [2]: 0.3 | Binding of serum SARS-yellow to linear peptides of protein X3 of SARS-CoV Urbani [2]: 0.4 | Binding of serum SARS-yellow to looped/cyclic peptides of protein X3 of SARS-CoV Urbani [2]: 1.0 | Rabbit serum linear peptides [3]: 0.3 | Rabbit serum looped peptides [3]: 0.4
